According to ChEMBL document CHEMBL1201862, “PubChem BioAssay data set” (2004):
The source made the active and inactive calls.

Key:
[1] = target: ATP-dependent translocase ABCB1 (Homo sapiens, UniProt P08183); assay: P-gp JC-1 efflux blockers potency – Jurkat-DNR cells, flow cytometry, follow-up, dose response (AID 489002); type: functional
[2] = COV434 cell viability loss – plate reader, dry powder, SA7, cytotoxicity control for PAX8 inhibitor project, dose response (AID 743145); type: functional, cell-based
[3] = OVCAR4 cell viability loss – plate reader, dry powder, SA11, cytotoxicity control for PAX8 inhibitor project, dose response (AID 743150); type: functional, cell-based; conditions: OVCAR-4
[4] = OV-90 cell viability loss – plate reader, dry powder, SA8, PAX8 inhibitor project, dose response (AID 743149); type: functional, cell-based
[5] = IGROV1 cell killing – plate reader, dry powder samples, PAX8 inhibitor project, dose response (AID 743043); type: functional, cell-based; conditions: IGROV-1
[6] = toxicity toward immortalized ovarian surface epithelium – cell-based, plate reader, dry powder samples, cytotoxicity control for PAX8 inhibitor project, dose response (AID 743045); type: functional
Paired box protein Pax-8 = Paired box protein Pax-8 (Homo sapiens, UniProt Q06710); assay: PAX8 transcriptional activity inhibition in RMG-I – RMG-I cells, luciferase, cherry-pick, dose response (AID 687027); type: functional, cell-based;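 also: luciferase reporter driven by Pax8 target thyroperoxidase promoter measured by SteadyGlo luminescence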
Chain of Paired box protein Pax-8 (Q06710 whole entry): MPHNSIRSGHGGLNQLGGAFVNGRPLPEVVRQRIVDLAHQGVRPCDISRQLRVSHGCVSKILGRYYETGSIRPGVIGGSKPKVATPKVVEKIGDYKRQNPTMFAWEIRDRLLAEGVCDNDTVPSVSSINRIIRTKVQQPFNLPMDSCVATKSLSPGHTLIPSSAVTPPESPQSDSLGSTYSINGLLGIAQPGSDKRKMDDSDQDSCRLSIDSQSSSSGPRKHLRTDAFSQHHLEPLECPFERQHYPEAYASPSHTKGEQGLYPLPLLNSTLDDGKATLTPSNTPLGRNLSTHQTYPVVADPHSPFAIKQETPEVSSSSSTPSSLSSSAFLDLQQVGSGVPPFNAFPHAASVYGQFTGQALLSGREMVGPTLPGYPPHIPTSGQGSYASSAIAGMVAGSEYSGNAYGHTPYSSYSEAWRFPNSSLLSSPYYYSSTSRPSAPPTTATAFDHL

[7] = inhibitors acting on PAX2 in cells – cell-based, plate reader, dry powder samples, selectivity assay for PAX8 inhibitor project, dose response (AID 743048); type: functional;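 also: HEK293 cells carrying a WT1 promoter luciferase reporter driven by expressed Pax2; potency is for inhibition of Pax2 driven reporter signal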
[8] = PAX8-dependent cell viability loss – plate reader, dry powder, dose response (AID 743049); type: functional, cell-based
[9] = COV362 cell viability loss – plate reader, dry powder, SA12, cytotoxicity control for PAX8 inhibitor project, dose response (AID 743144); type: functional, cell-based
[10] = OVCAR-3 cell viability loss – plate reader, dry powder samples, PAX8 inhibitor project, dose response (AID 743044); type: functional, cell-based
[11] = PAX5 cellular inhibition readout – cell-based, plate reader, dry powder samples, selectivity assay for PAX8 inhibitor project, dose response (AID 743047); type: functional;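 also: HEK293 cells carrying a Pax5 driven CD19 promoter luciferase reporter; potency of inhibitors that lower reporter luminescence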
[12] = general mammalian cell viability loss – inhibitor set, cherry-pick, set 2, cytotoxicity control for miR-122 modulator project, dose response (AID 720697); type: functional, cell-based
Fatty acid synthase = Fatty acid synthase (Homo sapiens, UniProt P49327); assay: inhibition of human FAS-TE enzyme activity – biochemical, endpoint fluorescence intensity, powder samples, SAR follow-up (AID 652164); type: functional
Chain of Fatty acid synthase (P49327 whole entry): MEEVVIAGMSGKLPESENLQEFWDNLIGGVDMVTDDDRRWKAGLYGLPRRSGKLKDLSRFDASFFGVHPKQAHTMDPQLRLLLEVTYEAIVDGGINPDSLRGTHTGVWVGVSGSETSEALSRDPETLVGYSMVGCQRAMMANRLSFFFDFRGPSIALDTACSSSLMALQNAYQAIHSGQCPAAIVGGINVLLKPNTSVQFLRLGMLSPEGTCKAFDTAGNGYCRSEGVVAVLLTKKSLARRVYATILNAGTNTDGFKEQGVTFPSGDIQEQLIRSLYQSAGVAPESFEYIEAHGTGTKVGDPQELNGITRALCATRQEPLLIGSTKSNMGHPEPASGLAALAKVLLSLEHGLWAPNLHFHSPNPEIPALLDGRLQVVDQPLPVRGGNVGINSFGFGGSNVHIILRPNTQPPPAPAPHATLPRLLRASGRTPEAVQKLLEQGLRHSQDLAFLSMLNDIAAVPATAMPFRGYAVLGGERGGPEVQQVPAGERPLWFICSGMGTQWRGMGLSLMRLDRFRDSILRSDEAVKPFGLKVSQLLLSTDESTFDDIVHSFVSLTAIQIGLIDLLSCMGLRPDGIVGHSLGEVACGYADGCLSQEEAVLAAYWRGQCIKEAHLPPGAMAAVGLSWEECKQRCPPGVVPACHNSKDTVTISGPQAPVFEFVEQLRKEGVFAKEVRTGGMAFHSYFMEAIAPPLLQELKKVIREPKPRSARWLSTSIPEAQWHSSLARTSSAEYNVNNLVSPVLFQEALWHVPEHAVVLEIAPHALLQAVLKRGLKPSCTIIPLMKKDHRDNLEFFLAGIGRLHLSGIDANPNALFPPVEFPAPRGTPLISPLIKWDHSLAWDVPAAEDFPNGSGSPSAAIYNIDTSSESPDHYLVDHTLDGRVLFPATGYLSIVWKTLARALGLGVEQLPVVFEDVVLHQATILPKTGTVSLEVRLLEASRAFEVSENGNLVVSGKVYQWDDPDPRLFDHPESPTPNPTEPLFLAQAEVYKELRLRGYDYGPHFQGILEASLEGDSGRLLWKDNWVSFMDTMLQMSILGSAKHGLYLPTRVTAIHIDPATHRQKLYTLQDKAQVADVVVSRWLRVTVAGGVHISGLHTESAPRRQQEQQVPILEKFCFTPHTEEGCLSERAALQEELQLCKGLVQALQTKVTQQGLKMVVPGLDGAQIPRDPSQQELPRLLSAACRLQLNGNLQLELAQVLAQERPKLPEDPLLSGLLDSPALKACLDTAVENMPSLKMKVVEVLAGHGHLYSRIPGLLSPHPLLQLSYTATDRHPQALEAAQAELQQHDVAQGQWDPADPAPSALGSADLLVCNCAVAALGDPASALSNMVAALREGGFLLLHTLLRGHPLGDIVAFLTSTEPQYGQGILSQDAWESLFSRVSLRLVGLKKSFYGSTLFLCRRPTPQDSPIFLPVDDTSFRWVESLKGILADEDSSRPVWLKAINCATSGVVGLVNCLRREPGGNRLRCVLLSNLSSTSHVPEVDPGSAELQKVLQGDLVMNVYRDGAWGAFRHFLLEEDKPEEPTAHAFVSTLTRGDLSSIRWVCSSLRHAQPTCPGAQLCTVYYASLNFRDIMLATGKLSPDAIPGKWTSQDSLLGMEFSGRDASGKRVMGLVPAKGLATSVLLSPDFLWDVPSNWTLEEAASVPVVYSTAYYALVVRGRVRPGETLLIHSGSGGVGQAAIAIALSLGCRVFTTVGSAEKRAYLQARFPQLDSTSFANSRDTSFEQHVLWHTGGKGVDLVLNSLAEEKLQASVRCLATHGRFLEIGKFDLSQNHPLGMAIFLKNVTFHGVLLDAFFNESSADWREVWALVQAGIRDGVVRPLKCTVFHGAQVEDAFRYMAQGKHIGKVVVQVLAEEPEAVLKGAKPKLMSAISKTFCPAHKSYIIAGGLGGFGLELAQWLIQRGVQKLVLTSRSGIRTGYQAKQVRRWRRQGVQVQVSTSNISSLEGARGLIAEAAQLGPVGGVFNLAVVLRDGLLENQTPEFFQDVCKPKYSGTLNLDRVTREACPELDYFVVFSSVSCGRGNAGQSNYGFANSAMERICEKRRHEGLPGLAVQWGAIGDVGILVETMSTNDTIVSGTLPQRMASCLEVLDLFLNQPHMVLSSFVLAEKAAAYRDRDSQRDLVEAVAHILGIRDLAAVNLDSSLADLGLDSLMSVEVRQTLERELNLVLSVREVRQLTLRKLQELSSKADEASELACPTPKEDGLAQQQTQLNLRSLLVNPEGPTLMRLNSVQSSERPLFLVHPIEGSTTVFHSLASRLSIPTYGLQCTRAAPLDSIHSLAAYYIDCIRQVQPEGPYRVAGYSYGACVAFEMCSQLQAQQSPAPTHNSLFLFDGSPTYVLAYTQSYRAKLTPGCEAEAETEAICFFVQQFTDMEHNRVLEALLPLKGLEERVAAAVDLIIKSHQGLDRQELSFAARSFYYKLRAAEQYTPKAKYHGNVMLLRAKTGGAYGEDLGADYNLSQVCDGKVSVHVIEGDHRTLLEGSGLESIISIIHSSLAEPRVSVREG

[13] = kidney cell line viability loss – HEK293T, luminescence plate reader, powder samples, set 4, cytotoxicity control, dose response (AID 651863); type: functional, cell-based; conditions: HEK293
[14] = target: Endoplasmic reticulum aminopeptidase 1 (Homo sapiens, UniProt Q9NZ08); assay: inhibition of human ERAP1 enzyme activity – biochemical, cherry-pick, set 2, plate reader, dose response (AID 743314)
Chain of Endoplasmic reticulum aminopeptidase 1 (Q9NZ08 whole entry): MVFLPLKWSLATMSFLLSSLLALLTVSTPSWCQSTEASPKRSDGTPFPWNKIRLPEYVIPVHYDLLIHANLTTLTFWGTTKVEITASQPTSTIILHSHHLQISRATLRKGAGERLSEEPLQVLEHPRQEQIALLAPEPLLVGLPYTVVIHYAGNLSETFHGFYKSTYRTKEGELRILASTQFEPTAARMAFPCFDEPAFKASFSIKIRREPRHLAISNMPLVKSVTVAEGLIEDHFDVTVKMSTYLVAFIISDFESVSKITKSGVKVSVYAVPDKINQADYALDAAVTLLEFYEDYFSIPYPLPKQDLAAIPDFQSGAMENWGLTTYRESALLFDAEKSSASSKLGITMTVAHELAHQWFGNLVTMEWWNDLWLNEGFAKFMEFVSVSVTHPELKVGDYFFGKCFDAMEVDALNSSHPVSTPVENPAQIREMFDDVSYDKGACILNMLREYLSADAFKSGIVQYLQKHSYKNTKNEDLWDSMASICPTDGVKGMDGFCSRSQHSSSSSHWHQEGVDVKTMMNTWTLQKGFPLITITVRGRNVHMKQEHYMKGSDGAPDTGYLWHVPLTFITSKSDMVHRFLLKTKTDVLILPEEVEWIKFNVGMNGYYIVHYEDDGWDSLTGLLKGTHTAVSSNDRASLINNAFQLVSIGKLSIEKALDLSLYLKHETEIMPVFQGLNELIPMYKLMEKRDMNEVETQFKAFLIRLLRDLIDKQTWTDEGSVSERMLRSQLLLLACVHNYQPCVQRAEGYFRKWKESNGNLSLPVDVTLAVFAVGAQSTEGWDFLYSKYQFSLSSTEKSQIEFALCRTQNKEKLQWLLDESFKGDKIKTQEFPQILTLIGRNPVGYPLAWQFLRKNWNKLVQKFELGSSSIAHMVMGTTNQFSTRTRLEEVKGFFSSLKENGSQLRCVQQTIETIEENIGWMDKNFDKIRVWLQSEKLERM

[15] = target: Potassium channel subfamily K member 9 (Homo sapiens, UniProt Q9NPC2); assay: KCNK9 flux blockade, concentration-response – cell-based, FluxOR thallium flux, selectivity assay for TASK1 inhibitor project, SAR follow-up (AID 652211); type: functional;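 also: potency is for inhibitors of the channel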
Chain of Potassium channel subfamily K member 9 (Q9NPC2 whole entry): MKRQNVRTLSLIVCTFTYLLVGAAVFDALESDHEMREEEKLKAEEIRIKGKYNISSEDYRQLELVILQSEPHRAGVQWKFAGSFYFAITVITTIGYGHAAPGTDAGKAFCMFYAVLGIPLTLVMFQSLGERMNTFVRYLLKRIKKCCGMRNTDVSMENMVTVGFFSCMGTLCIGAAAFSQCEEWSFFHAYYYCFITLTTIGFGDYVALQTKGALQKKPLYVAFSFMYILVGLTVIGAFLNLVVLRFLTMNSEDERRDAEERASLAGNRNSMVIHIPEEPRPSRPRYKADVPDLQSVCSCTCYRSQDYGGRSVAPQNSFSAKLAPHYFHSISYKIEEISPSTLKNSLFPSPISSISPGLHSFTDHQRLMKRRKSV

[16] = target: Potassium channel subfamily K member 3 (Homo sapiens, UniProt O14649); assay: inhibition of human KCNK3 channel flux – CHO cells, FluxOR thallium flux, SAR follow-up (AID 652212); type: functional
Chain of Potassium channel subfamily K member 3 (O14649 whole entry): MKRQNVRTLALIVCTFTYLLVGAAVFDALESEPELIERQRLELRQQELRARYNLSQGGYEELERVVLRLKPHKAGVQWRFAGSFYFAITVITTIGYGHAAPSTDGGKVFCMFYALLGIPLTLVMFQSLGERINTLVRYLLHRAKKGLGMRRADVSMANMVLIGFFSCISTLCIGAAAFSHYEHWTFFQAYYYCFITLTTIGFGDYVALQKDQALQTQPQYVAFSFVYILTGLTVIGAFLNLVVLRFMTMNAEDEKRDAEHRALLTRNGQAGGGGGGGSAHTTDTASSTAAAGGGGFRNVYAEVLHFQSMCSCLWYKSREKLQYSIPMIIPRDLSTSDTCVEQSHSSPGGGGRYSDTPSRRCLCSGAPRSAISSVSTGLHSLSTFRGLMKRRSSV

[17] = A Cell-Based Confirmatory Screen for Compounds that Inhibit VEEV, TC-83 (3).; type: functional
[18] = ATP-based viability loss in HeLa cells – cell-based, CellTiter-Glo luminescence, dry powder, set 2, cytotoxicity control, dose response (AID 720593); type: functional
[19] = dual-tagged ARNT PAS-B bead signal quenchers – biochemical, dry powder, artefact control for ARNT/TACC3 disruptor project, dose response (AID 720564)

CN(CCN(C)c1cc(-c2ccco2)nc2cc(-c3ccccc3)nn12)C(=O)c1ccoc1 showed an EC50 [1] of 0.0001485 µM.
In the case of N#C[C@H]1[C@@H](c2ccc(C#Cc3ccc(F)cc3)cc2)[C@H](CO)N1C(=O)Nc1ccc(F)cc1, the AC50 [2] is reported as 20.5 µM (active), the AC50 [3] is reported as 19.2 µM (active) and the AC50 [4] is reported as 21.1 µM (active). For the same compound, the AC50 [5] was 30.1 µM (active), the AC50 [6] was 44.7 µM (active) and the AC50 (Paired box protein Pax-8) was 12.3 µM (active). For the same compound, the AC50 [7] was 14.1 µM (active), the AC50 [8] was 13.2 µM (active) and the AC50 [9] was 19.6 µM (active). For the same compound, the AC50 [10] was 23.5 µM (active) and the AC50 [11] was 14 µM (active).
With CCC(=O)NC[C@@H]1[C@@H](c2ccc(C3=CCCC3)cc2)[C@@H](CO)N1C(C)=O the AC50 [12] was 9.42 µM (active).
For CC(=O)Nc1nc(-c2ccc(S(=O)(=O)N3CCSCC3)cc2)cs1, the IC50 (Fatty acid synthase) was > 80 µM (inactive).
In the case of COC(=O)C(C(=O)OC)c1cc(NS(=O)(=O)c2c(C)cc(C)cc2C)c2ccccc2c1O, the AC50 [13] is reported as 27 µM (active).
With COC(=O)[C@H]1[C@H](CO)[C@H]2Cn3c(ccc(-c4ccncc4)c3=O)[C@H]2N1Cc1ccccc1F the AC50 [14] was 10.2 µM (active).
In the case of Cc1cccc(C(=O)Nc2cccc(NC(=O)c3ccccc3OCC(C)C)c2)c1, the IC50 [15] is reported as 3.39 µM (active) and the IC50 [16] is reported as 0.206 µM (active).
With CC(C)N1CCN(Cc2nc3ccc([N+](=O)[O-])cc3c(=O)n2-c2ccccc2F)CC1 the IC50 [17] was 3.13 µM (active).
For O=C(Nc1nc(-c2ccncc2)cs1)c1cccc(S(=O)(=O)N2CCOCC2)c1, the AC50 [18] was > 52 µM (inactive) and the AC50 [19] was 110 µM (active).
